# Laboratory results published in PMC6138628, “Enhanced uptake of gH625 by blood brain barrier compared to liver in vivo: characterization of the mechanism by an in vitro model and implications for delivery” (Scientific Reports, 2018).
# Like-named read-outs stand apart in the source and are kept apart here. Residues, ends and D or L forms follow the SMILES beside them.
# Columns and labels:
# [1] = previous work; cited from earlier work
# From the text: In general a high accumulation in the target tissue results in an improved therapeutic effect, while a large amount of drug distributed to non-target organs may cause unwanted toxicity and/or side effects. It is thus fundamental to reduce liver metabolism and renal clearance to produce prolonged blood circulation with an i ...
# [2] = outer NBD reduced with sodium dithionite
# Procedure: A modification of the lipid mixing experiment allowed to measure peptide-induced mixing of the inner monolayer. A concentration of 0.6% mol for each of the fluorescent probes within the liposome was used. In order to completely reduce the NBD located at the outer surface of the membrane, LUVs were treated with sodium dithionite 100 mM (from a stock solution of 1 M dithionite in 1 M TRIS, pH 10.0) for approximately 1 h on ice in the dark. Excess sodium dithionite was removed by size exclusion chromatography through a Sephadex G-75 50 DNA Grade filtration column (GE Healthcare) eluted with a buffer containing 10 mM TRIS, 100 mM NaCl, and 1 mM EDTA, pH 7.4.
# In the inner monolayer assay, the fluorescence from the vesicle membranes’ outer monolayer is eliminated by the addition of an aqueous reducing agent; while in the lipid mixing experiment we measured both hemi-fusion and complete fusion, in this experiment we determined only the extent of lipid mixing between the inner monolayers.
# [3] = Tryptophan fluorescence, binding isotherm and partition coefficient; format: physicochemical; settings: peptide 4 µM, λex 295 nm
# Procedure: Emission spectra of the tryptophan contained in the peptide (4 µM) in the absence or presence of target vesicles were recorded between 300 and 400 nm with λex 295 nm in order to determine the presence of the peptide inside the membrane. To establish the strength of peptide-lipid interaction, LUVs were added to the peptide solution (4 µM) and the fluorescence intensity was recorded as a function of the lipid/peptide molar ratio (L/P), in three to four separate experiments. The results were corrected for the dilution factor. We used an L/P ratio of 200:1. […] F∞ was obtained by extrapolation of a double reciprocal plot of the total peptide fluorescence vs the total lipid concentration in the outer leaflet. The fraction of membrane-bound peptide, fb, was determined by fb = (F − F0)/(F∞ − F0), where F represents the fluorescence of peptide after the addition of the vesicles and F0 represents the fluorescence of the unbound peptide. fb allowed us to calculate the equilibrium concentration of the free peptide in the solution, Cf, and the extent of peptide binding Xb. […]
# The presence of a tryptophan residue in the middle of the sequence of gH625, allowed the evaluation of the degree of peptide penetration into liposomes of different composition. In particular, we compared the fluorescence emission spectra in vesicles mimicking the BBB and the liver with that in buffer. […]
# [4] = 0.1 mM lipid, 37 °C, 100% = Triton X-100, repeated at least three times
# Procedure: Large unilamellar vesicles (LUVs) and small unilamellar vesicles (SUVs) consisting of PI/DOPE/DPPC/PS/Chol/SM (4/23/30/8/20/15 ratio in moles)[33],[34], DSPC/POPE/PI/PS/lysoPC/SM/DOPG (37/21/7/9/3/18/5 ratio in moles)[35], and when required containing Rho-PE and NBD-PE, were formulated in 5 mM HEPES, 100 mM NaCl, pH 7.4. LUVs were prepared using the extrusion method as previously reported; lipids were first dissolved in chloroform, then dried under a nitrogen gas stream and lyophilized overnight. For fluorescence experiments, buffer was added to dry lipid films and vortexed for 1 h; then the lipid suspension was freeze-thawed 6 times and extruded 20 times through polycarbonate membranes with 0.1 μm diameter pores to obtain LUVs. For circular dichroism measurements, peptide samples in SUVs were prepared using the following protocol. Lipids were dissolved in chloroform and added to an equal volume of peptide solution dissolved in TFE containing appropriate peptide concentration. The samples were vortexed and lyophilized overnight. The dry samples were rehydrated with phosphate buffer (5 mM) for 1 h and sonicated for 30 min.
# Membrane lipid mixing was followed by the resonance energy transfer assay (FRET)[39].
# [5] = parameters: method as in PMID 25792823; settings: after 3.5 h of incubation in serum; cited from earlier work
smiles,measurement,setting,value
CC[C@H](C)[C@H](NC(=O)[C@H](CC(C)C)NC(=O)[C@H](C)NC(=O)[C@H](CC(N)=O)NC(=O)[C@H](Cc1ccc(O)cc1)NC(=O)[C@H](Cc1c[nH]cn1)NC(=O)[C@H](C)NC(=O)[C@H](Cc1c[nH]c2ccccc12)NC(=O)[C@H](CCCNC(=N)N)NC(=O)[C@@H](NC(=O)[C@H](CC(C)C)NC(=O)[C@@H](NC(=O)[C@H](CO)NC(=O)[C@H](C)NC(=O)[C@H](CC(C)C)NC(=O)CNC(=O)[C@@H](N)Cc1c[nH]cn1)[C@@H](C)O)[C@@H](C)O)C(=O)N[C@@H](CCCNC(=N)N)C(=O)N[C@@H](C)C(=O)N[C@@H](Cc1ccccc1)C(N)=O [gH625] (H-HGLASTLTRWAHYNALIRAF-NH2),Alterations of cell viability or maximal mitochondrial oxidative capacity linked to uptake,[1],not linked to alterations of cell viability or maximal mitochondrial oxidative capacity
same,Inner monolayer fusion,"[2]; at a P/L ratio corresponding to 100% of fusion, BBB mimicking LUVs",approximately 20%
same,Inner monolayer fusion,"[2]; at a peptide/lipid ratio with 100% of lipid mixing, liver mimicking LUVs",100%
same,"Tryptophan fluorescence emission (intensity increase, blue shift): penetration into bilayer",[3]; BBB mimicking LUVs vs buffer,capable of penetrating both lipid bilayers
same,"Tryptophan fluorescence emission (intensity increase, blue shift): penetration into bilayer",[3]; liver mimicking LUVs vs buffer,capable of penetrating both lipid bilayers
same,"Maximum peptide/lipid ratio (P/L), complete fusion of vesicles",[4]; LUVs DSPC/POPE/PI/PS/lysoPC/SM/DOPG (37/21/7/9/3/18/5),0.7
same,"Maximum peptide/lipid ratio (P/L), complete fusion of vesicles",[4]; LUVs PI/DOPE/DPPC/PS/Chol/SM (4/23/30/8/20/15),0.05
same,"Serum stability, intact peptide",[5],significant amount of intact peptide
